# What was measured:
# [1] = target: T1, Sodium-dependent serotonin transporter (Homo sapiens, UniProt P31645); assay: Inhibition of SERT (unknown origin)-mediated uptake
# [2] = target: T2, Sodium-dependent dopamine transporter (Homo sapiens, UniProt Q01959); assay: Inhibition of DAT (unknown origin)-mediated uptake
# [3] = target: T3, Sodium-dependent noradrenaline transporter (Homo sapiens, UniProt P23975); assay: Binding affinity to human NET
# [4] = target: T2, Sodium-dependent dopamine transporter; assay: Binding affinity to human DAT
# [5] = target: T1, Sodium-dependent serotonin transporter; assay: Binding affinity to human SERT
# [6] = Half life in human at 4 to 8 mg; assay type: ADME, organism-based; details: in vivo
# [7] = Tmax in human at 8 to 36 mg by LC-MS/MS analysis; assay type: ADME, organism-based; details: in vivo
# [8] = Elimination half life in human at 8 to 36 mg by LC-MS/MS analysis; assay type: ADME, organism-based; details: in vivo, read-out: beta t1/2
# Homo sapiens [9] = assay: In vivo receptor occupancy at SERT in human at 8 to 16 mg after 24 hrs post dose by [11C]-DASB based PET imaging analysis; assay type: functional
# [10] = target: T3, Sodium-dependent noradrenaline transporter
# Description: Binding affinity to NET (unknown origin)
# Homo sapiens [11] = assay: In vivo receptor occupancy at DAT in human at 8 to 16 mg measured 24 hrs post dose by [11C]-PE2I based PET imaging analysis; assay type: functional
# [12] = target: T2, Sodium-dependent dopamine transporter
# Description: Binding affinity to DAT (unknown origin)
# [13] = target: T1, Sodium-dependent serotonin transporter; assay: biochemical; assay type: cell-based, HEK293
# Description: Binding affinity to human SERT expressed in HEK293 cells after 60 mins in presence of [3H]imipramine by liquid scintillation counting
# [14] = target: T3, Sodium-dependent noradrenaline transporter; assay: Binding affinity to human NET expressed in HEK293 cells after 60 mins in presence of [3H]imipramine by liquid scintillation counting; assay type: cell-based
# [15] = target: T2, Sodium-dependent dopamine transporter; assay: Binding affinity to human DAT expressed in HEK293 cells after 60 mins in presence of […] by liquid scintillation counting; assay type: cell-based
# [16] = target: T1, Sodium-dependent serotonin transporter
# Description: Binding affinity to SERT (unknown origin)
# [17] = target: Sodium-dependent dopamine transporter (Rattus norvegicus, UniProt P23977); assay: Inhibition of rat brain DAT assessed as reduction of [3H]-DA re-uptake preincubated for 30 mins followed by [3H]-DA addition measured after 5 mins by scintillation counting
# Sodium-dependent dopamine transporter (Rattus norvegicus, UniProt P23977), sequence (P23977 whole entry): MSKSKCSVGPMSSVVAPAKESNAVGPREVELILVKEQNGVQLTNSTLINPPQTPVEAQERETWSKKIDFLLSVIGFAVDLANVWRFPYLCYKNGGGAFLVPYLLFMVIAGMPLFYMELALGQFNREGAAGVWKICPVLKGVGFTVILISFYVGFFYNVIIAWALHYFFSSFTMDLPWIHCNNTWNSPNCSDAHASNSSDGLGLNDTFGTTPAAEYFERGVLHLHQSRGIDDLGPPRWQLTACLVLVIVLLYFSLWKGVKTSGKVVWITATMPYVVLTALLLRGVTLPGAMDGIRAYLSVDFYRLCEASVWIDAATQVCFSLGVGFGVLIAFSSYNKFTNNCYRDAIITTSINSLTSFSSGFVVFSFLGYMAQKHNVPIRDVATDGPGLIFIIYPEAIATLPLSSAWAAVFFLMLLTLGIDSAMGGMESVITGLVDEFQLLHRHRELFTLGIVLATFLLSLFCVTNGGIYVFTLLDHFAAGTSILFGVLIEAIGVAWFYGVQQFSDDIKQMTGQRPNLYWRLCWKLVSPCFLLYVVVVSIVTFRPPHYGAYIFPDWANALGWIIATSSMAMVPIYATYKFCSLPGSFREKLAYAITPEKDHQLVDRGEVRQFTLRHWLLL
# [18] = target: Sodium-dependent serotonin transporter (Rattus norvegicus, UniProt P31652); assay: Inhibition of rat brain SERT assessed as reduction of [3H]5-HT re-uptake preincubated for 30 mins followed by [3H]5-HT addition measured after 5 mins by scintillation counting
# Sodium-dependent serotonin transporter (Rattus norvegicus, UniProt P31652), sequence (P31652 whole entry): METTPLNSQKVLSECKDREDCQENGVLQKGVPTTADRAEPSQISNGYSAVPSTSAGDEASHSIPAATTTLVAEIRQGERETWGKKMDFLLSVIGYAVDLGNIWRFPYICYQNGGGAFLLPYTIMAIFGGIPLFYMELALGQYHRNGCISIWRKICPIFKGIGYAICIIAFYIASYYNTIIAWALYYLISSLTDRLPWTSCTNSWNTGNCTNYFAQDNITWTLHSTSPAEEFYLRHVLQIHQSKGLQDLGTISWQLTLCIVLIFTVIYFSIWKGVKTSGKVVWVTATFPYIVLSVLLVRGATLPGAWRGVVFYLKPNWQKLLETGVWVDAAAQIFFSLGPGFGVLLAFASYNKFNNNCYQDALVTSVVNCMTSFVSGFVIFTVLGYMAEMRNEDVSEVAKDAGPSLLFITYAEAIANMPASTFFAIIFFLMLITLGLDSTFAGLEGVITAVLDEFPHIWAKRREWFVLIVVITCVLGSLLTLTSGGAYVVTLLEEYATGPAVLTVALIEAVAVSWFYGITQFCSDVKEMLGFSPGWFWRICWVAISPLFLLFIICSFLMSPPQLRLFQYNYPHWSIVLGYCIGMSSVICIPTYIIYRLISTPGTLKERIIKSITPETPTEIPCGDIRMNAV
# [19] = target: Norepinephrine transporter (Rattus norvegicus, UniProt Q9WTR4); assay: Inhibition of rat brain NET assessed as reduction of [3H]-NE re-uptake preincubated for 30 mins followed by [3H]-NE addition measured after 5 mins by scintillation counting
# Norepinephrine transporter, sequence (Q9WTR4 whole entry): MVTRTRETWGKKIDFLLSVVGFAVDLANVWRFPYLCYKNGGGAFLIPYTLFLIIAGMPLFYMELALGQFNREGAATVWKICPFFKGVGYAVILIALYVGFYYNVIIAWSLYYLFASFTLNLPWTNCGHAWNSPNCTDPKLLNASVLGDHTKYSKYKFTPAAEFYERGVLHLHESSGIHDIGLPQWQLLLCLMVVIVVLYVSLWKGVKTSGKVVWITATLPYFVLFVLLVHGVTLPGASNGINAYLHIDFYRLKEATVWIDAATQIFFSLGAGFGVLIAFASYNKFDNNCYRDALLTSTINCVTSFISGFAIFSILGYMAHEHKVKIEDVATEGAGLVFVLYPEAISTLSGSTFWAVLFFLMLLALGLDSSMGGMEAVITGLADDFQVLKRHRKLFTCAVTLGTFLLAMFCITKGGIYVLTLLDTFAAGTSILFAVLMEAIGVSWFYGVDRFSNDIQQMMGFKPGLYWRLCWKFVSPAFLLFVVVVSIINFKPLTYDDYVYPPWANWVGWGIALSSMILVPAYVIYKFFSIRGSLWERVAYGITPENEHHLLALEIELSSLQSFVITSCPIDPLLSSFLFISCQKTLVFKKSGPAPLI
# [20] = Half life in human brain; assay type: ADME, tissue-based
# Homo sapiens [21] = assay: In vivo receptor occupancy at DAT in iv dosed human measured up to 15 mins by PET analysis; assay type: functional
# Mus musculus [22] = assay: Antidepressant activity in TST mouse model assessed as reduction in immobility time at 0.3 mg/kg, po relative to control; assay type: functional
# [23] = Tmax in human at 0.025 to 5 mg, po by LC-MS/MS analysis; assay type: ADME, organism-based; details: in vivo
# Mus musculus [24] = assay: In vivo receptor occupancy at NET in mouse at 0.3 mg/kg; assay type: functional
# Mus musculus [25] = assay: In vivo receptor occupancy at DAT in mouse at 0.3 mg/kg; assay type: functional
# Homo sapiens [26] = assay: In vivo receptor occupancy at DAT in human at 3 mg, po administered on day 1 measured on day 14 by […]-based PET imaging analysis; assay type: functional
# Homo sapiens [27] = assay: In vivo receptor occupancy at SERT in human at 3 mg, po administered on day 1 measured on day 14 by [11C]-DASB -based PET imaging analysis; assay type: functional
# [28] = Half life in human at 0.025 to 5 mg, po by LC-MS/MS analysis; assay type: ADME, organism-based; details: in vivo
# Homo sapiens [29] = assay: In vivo receptor occupancy at SERT in human at 0.5 mg, po administered on day 1 measured on day 14 by [11C]-DASB -based PET imaging analysis; assay type: functional
# Mus musculus [30] = assay: In vivo receptor occupancy at SERT in mouse at 0.3 mg/kg; assay type: functional
# T1 sequence (P31645 whole entry): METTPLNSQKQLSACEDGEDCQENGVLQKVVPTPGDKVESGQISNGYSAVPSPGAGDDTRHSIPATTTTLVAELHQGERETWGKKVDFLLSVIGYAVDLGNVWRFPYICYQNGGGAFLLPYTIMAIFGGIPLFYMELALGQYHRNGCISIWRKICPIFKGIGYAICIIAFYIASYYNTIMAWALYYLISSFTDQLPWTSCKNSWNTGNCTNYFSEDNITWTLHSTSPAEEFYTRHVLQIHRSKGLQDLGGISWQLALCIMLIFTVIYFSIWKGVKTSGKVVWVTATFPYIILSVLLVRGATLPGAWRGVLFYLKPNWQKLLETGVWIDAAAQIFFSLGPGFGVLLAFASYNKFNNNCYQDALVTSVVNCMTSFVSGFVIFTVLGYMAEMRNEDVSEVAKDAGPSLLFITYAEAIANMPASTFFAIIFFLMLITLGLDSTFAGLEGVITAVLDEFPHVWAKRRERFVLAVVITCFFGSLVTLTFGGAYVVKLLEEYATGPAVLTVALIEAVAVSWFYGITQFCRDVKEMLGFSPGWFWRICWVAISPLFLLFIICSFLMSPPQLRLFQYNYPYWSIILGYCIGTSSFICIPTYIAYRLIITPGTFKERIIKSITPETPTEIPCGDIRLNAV
# T2 sequence (Q01959 whole entry): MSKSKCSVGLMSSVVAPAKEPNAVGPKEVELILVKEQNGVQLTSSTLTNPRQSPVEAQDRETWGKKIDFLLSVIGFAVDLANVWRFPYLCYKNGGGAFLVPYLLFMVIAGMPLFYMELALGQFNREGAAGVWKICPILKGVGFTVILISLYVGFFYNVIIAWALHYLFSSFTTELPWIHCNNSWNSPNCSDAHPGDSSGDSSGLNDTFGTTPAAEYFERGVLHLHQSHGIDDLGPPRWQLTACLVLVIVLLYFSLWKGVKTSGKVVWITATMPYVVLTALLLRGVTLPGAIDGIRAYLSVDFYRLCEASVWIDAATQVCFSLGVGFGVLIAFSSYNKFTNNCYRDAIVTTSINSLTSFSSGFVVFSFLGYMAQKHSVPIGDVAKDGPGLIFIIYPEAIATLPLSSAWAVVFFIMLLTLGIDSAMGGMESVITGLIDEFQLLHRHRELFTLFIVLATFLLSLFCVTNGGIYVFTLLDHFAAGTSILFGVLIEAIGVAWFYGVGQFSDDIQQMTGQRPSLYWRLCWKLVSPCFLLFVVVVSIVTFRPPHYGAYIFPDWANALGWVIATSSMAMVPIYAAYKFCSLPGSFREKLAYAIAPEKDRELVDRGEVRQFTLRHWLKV
# T3 sequence (P23975 whole entry): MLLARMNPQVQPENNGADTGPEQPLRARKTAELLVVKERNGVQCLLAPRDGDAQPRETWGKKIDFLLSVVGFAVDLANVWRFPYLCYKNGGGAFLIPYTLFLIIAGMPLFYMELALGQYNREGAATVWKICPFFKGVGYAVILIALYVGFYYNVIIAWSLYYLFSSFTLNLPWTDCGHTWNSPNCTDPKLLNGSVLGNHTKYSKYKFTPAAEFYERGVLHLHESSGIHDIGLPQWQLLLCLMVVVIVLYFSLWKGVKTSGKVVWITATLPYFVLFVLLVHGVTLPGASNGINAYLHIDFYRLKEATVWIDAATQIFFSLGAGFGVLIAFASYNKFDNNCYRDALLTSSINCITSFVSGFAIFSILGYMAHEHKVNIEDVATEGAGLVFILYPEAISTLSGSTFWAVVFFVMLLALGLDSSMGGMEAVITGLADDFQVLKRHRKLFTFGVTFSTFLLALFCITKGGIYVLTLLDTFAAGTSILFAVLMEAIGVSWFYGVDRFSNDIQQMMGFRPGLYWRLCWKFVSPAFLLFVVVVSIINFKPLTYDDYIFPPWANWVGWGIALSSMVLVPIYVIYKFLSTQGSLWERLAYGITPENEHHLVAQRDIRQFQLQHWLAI
structure (smiles),measurement,setting,value
CN(C)C[C@]1(c2ccc3ccccc3c2)CC[C@](C)(O)CC1,IC50,[1],7 nM
same,IC50,[2],167 nM
Clc1ccc([C@@H]2CCNC[C@@]23CCOC3)cc1Cl,Ki,[3],79.4 nM
same,Ki,[4],39.8 nM
same,Ki,[5],5.01 nM
N[C@H]1CC[C@H](c2ccc(Cl)c(Cl)c2)c2ccccc21,half-life,[6],47 h
same,Tmax,[7],10 to 12 h
same,half-life,[8],44 to 77 h
same,Occ,Homo sapiens [9],2 - 14%
same,IC50,[10],4 nM
same,Occ,Homo sapiens [11],33 - 49%
same,IC50,[12],2 nM
CNC[C@@H](c1ccc2ccccc2c1)[C@@H](O)c1ccccc1,Kd,[13],210 nM
same,Kd,[14],42 nM
same,Kd,[15],200 nM
COC[C@H]1CN[C@H]2CC[C@]1(c1ccc(Cl)c(Cl)c1)C2,Ki,[3],0.0794 nM
same,Ki,[4],1.51 nM
same,Ki,[5],1.26 nM
Cc1cc2cc(OC3C[C@H]4CC[C@@H](C3)N4)ccc2oc1=O (some centres not stated),IC50,[10],10 nM
same,IC50,[16],0.72 nM
same,IC50,[12],150 nM
C[C@]1(O)CC[C@@](CN)(c2ccc(Cl)c(Cl)c2)CC1,IC50,[1],> 10000 nM
same,IC50,[2],2600 nM
CC1CCCN(C(=O)CSC[C@H]2CN(C)CC[C@@H]2c2ccc(Cl)cc2)C1 (some centres not stated),IC50,[17],120 nM
same,IC50,[18],15 nM
same,IC50,[19],84 nM
Clc1ccc(C2CCNCC23CCOCC3)cc1Cl (racemic),Ki,[3],10 nM
same,Ki,[4],20 nM
same,Ki,[5],0.631 nM
CN(C)C[C@H](c1ccc2ccccc2c1)[C@H](O)C1CCCCC1 (racemic),Ki,[13],6 nM
same,Ki,[14],10 nM
same,Ki,[15],53 nM
CNC[C@H](c1ccc2ccccc2c1)[C@H](O)c1ccccc1 (racemic),Ki,[13],12 nM
same,Ki,[14],1.2 nM
same,Ki,[15],43 nM
COC(=O)[C@H](c1ccccc1)[C@H]1CCCCN1 (racemic) [DEXMETHYLPHENIDATE],half-life,[20],1.5 h
same,Occ,Homo sapiens [21],60%
Clc1ccc(C2CCNCC23CCOCC3)cc1Cl (stereo in doubt; 171),Ki,[3],63.1 nM
same,Ki,[4],31.6 nM
same,Ki,[5],1.26 nM
Clc1ccc(C2CCNCC23CCOCC3)cc1Cl (stereo in doubt; 172),Ki,[3],3.98 nM
same,Ki,[4],12.6 nM
same,Ki,[5],0.316 nM
Cc1ccc(C23CNCC2C3)cc1 (configuration not stated) [BICIFADINE],IC50,[10],55 nM
same,IC50,[16],117 nM
same,IC50,[12],910 nM
CC(NC(C)(C)C)C(=O)c1cccc(Cl)c1 (configuration not stated) [BUPROPION],Occ,Homo sapiens [21],<30%
COC(=O)[C@H]1[C@@H](OC(=O)c2ccccc2)C[C@@H]2CC[C@H]1N2C [COCAINE],half-life,[20],0.333 h
COC[C@@]12CNCC[C@]1(c1ccc(Cl)c(Cl)c1)C2 [GSK1360707],IC50,[10],8.1 nM
same,IC50,[16],9.2 nM
same,IC50,[12],8 nM
CN1Cc2cc(-c3ccc(N)nn3)ccc2[C@H](c2ccc3ccccc3c2)C1 [LIAFENSINE],inhibition in vivo at 0.3 mg/kg,Mus musculus [22],77%
same,Tmax,[23],5 to 7.2 h
same,Occ,Mus musculus [24],76%
same,Occ,Mus musculus [25],28%
same,Occ,Homo sapiens [26],19%
same,Occ,Homo sapiens [27],82%
same,IC50,[10],8.8 nM
same,IC50,[16],1.1 nM
same,half-life,[28],34 to 57 h
same,Occ,Homo sapiens [29],19%
same,Occ,Mus musculus [30],86%
